# According to patent US10696707B2, “Polyene macrolide derivative” (Shionogi & Co., Ltd., priority 2014, dated 2020):
# Like-named read-outs stand apart in the source and are kept apart here.
# Columns and labels:
# C. albicans ATCC90028 = test: Antifungal activity test, MIC by broth microdilution (CLSI M27-A3); type: cell-based; conditions: Candida albicans
# Procedure, shortened: (§1)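 CLSI broth microdilution in RPMI 1640 with 2% glucose, 0.165 mol/L MOPS, pH 7.0; two-fold DMSO dilutions. MIC = lowest concentration giving 100% inhibition versus growth control.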
# A. flavus ATCC204304 = test: Antifungal activity test, MIC by broth microdilution (CLSI M38-A2); type: cell-based; conditions: Aspergillus flavus
# Procedure, shortened: as §1
# A. fumigatus ATCC204305 = test: as above; type: cell-based; conditions: Aspergillus fumigatus
# Procedure, shortened: as §1
# [1] = tested on: red blood cells (5% RBC suspension); test: Test Example 2-2: in vitro hemolytic activity test (upper limit 200 μmol/L); type: cell-based; conditions: Erythrocyte, read-out: hemolysis IC50
# Procedure, shortened: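 Washed defibrinated blood cells suspended at 5% in phenol-red-free Earle's medium, exposed to DMSO-dissolved compounds (top final 200 μmol/L, doubling dilutions) for 1 h at 37° C, 5% CO2. Supernatant A540 read; % hemolysis relative to water-lysed blood and DMSO control, IC50 derived, upper limit 200 μmol/L.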
# HepG2 cells = type: cell-based; conditions: human, 71 h
# Description: The Cytotoxicith of the compounds of the present invention was evaluated by measuting cell numbers automatically using the cell image analyzer, Toxinsight® (Thermofisher Scientific).
# HepG2 cells were seeded in 384-well black plates (100000 cells/mL) and allowed to attach for approximately 24 hours at 37° C. in humidified CO2 incubator. Test compounds and positive control (Fungizone®) were initially dissolved as concentrated 20 mmol/L stock solutions in DMSO and added to culture medium, to the final concentration; 1.6, 3.1, 6.3, 12.5, 25, 50, 100 μmol/L. The negative control well was treated with DMSO alone. After exposure of each test compound for approximately 71 hours, each well were added with Hoechst 33342, for staining of nuclei, diluted in D-PBS to the final concentration; 1 μg/mL, and after that, fixed with 4% paraformaldehyde. The cell number, stained with Hoechst 33342, was counted by Toxinsight® (Thermofisher Scientific) in each well. The mean value of cell number and the standard deviation (SD) was calculated (N=4).
# [2] = Test Example 4: nephrotoxicity, kidney marker gene expression by quantitative RT-PCR after intravenous administration; type: in vivo; conditions: mouse, kidney, mice, nephrotoxicity positive when ΔΔCt of two-third of target genes (Kim1, Timp1, Lcn2) >3
# Description: (§2) The expression level of marker genes for nephrotoxicity was determined by quantitative RT-PCR to evaluate nephrotoxicity of the compound of the present invention. The compound of the present invention or vehicle was intravenously administered to mice and their kidneys were isolated. After removal of the kidney capsule, all of the kidneys were sliced into two equal halves, and stored at −80° C. in RNAlater® (Ambion) until use. Samples were disrupted and homogenized in QIAzol Lysis Reagent with TissueLyser (Qiagen), and total RNA was extracted using an RNeasy® Mini kit (Qiagen). Total RNA concentrations were determined to read OD260 by absorptiometer.
# (§3) The level of expression of the following target genes was determined using one-step quantitative real-time PCR: Kim1, Timp1, and Lcn2. Total RNA (80 ng/2 μL) was used as the template, and TaqMan Gene Expression Assays (Applied Biosystems, for Haver1 (Kim1), assay ID: Mm00506686_m1; Timp1, Mm01341361_m1; Lcn2, Mm01324470_m1) or TaqMan Endogenous Controls (Gapdh, predesigned assay reagent supplied by ABI, Applied Biosystems) were employed as gene-specific probe and primer sets. Quantitative RT-PCR was performed using a QuantiTect™ Probe RT-PCR kit (Qiagen), and transcript levels were quantitated with an Applied Biosystems 7900HT Fast Real Time PCR System (Applied Biosystems). Reverse transcription and amplification conditions were set as follows: 50° C. for 30 min, 95° C. for 15 min, followed by 40 cycles at 95° C. for 15 s and 60° C. for 1 min. The resulting cycle threshold (Ct) value was processed based on the comparative Ct method (ΔΔCt Method), where Gapdh was used as an endogenous reference gene to normalize the expression level of target genes.
# (§4) The ΔCt was calculated as follows: Ct, Gapdh−Ct, target gene.
# (§5) The ΔΔCt was calculated as follows: ΔCt, treated sample−ΔCt, average of vehicle control sample.
# (§6) Higher ΔΔCt values indicate higher expression rates of the target gene and therefore high risk for nephrotoxicity.
# Kim1, Timp1, and Lcn2 = test: as above; type: in vivo; conditions: mice, nephrotoxicity positive when ΔΔCt of two-third of target genes (Kim1, Timp1, Lcn2) >3
# Description: as §2, §3, §4, §5, §6
# [3] = tested on: red blood cells (5% RBC suspension); test: Test Example 2-1: in vitro hemolytic activity test (upper limit 50, 80, 100 or 200 μmol/L); type: cell-based; conditions: hemolysis method 200 (upper concentration 200 μmol/L); 5% RBC suspension, 37° C., one hour; read-out: hemolysis IC50
# Procedure, shortened: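 A 5% suspension of washed red cells in Earle's medium was exposed to doubling dilutions of compound from DMSO, with maxima of 50, 80, 100 or 200 μmol/L final, for 1 h at 37 °C, 5% CO2. Supernatant absorbance at 540 nm was normalised to water-lysed cells. IC50 is the concentration giving 50% hemolysis; ">" values exceed the top concentration.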
smiles,measurement,setting,value
"C[C@@H]1[C@H](O)[C@@H](C)/C=C/C=C/C=C/C=C/C=C/C=C/C=C/[C@H](O[C@@H]2O[C@H](C)[C@@H](O)[C@H](N)[C@@H]2O)C[C@@H]2O[C@](O)(C[C@@H](O)C[C@@H](O)[C@H](O)CC[C@@H](O)C[C@@H](O)CC(=O)O[C@H]1C)C[C@H](O)[C@H]2NC(=O)NCCN [AmBAU, reference compound]",MIC,C. albicans ATCC90028; ATCC90028,0.5 µg/mL
same,MIC,A. flavus ATCC204304; ATCC204304,1 µg/mL
same,MIC,A. fumigatus ATCC204305; ATCC204305,1 µg/mL
same,IC50,[1],58 µM
same,cytotoxicity (lowest cytotoxicity concentration),HepG2 cells,51.0 µmol/L
same,MTD,[2],12 mg/kg
C[C@@H]1[C@H](O)[C@@H](C)/C=C/C=C/C=C/C=C/C=C/C=C/C=C/[C@H](O[C@@H]2O[C@H](C)[C@@H](O)[C@H](N)[C@@H]2O)C[C@@H]2O[C@](O)(C[C@@H](O)C[C@@H](O)[C@H](O)CC[C@@H](O)C[C@@H](O)CC(=O)O[C@H]1C)C[C@H](O)[C@H]2NC(=O)N/N=C/[C@H](O)CO [I-235],nephrotoxicity MTD,"Kim1, Timp1, and Lcn2",>24 mg/kg
"CNC(=O)N[C@H]1[C@@H]2C[C@@H](O[C@@H]3O[C@H](C)[C@@H](O)[C@H](N)[C@@H]3O)/C=C/C=C/C=C/C=C/C=C/C=C/C=C/[C@H](C)[C@@H](O)[C@@H](C)[C@H](C)OC(=O)C[C@H](O)C[C@H](O)CC[C@@H](O)[C@H](O)C[C@H](O)C[C@](O)(C[C@@H]1O)O2 [AmBMU, reference compound]",MIC,"C. albicans ATCC90028; C. albicans ATCC90028, broth microdilution, 35° C., 24-48 hours, 100% inhibition, read-out: MIC",0.5 µg/mL
same,MIC,"A. flavus ATCC204304; A. flavus ATCC204304, broth microdilution, 35° C., 24-48 hours, 100% inhibition, read-out: MIC",1 µg/mL
same,MIC,"A. fumigatus ATCC204305; A. fumigatus ATCC204305, broth microdilution, 35° C., 24-48 hours, 100% inhibition, read-out: MIC",1 µg/mL
same,IC50,"[1]; comparative example, hemolysis method 200 (upper limit 200 μmol/L), 37° C., an hour",130 µM
same,cytotoxicity (lowest cytotoxicity concentration),HepG2 cells,12.5 µmol/L
same,MTD,[2],12 mg/kg
C[C@@H]1[C@H](O)[C@@H](C)/C=C/C=C/C=C/C=C/C=C/C=C/C=C/[C@H](O[C@@H]2O[C@H](C)[C@@H](O)[C@H](N)[C@@H]2O)C[C@@H]2O[C@](O)(C[C@@H](O)C[C@@H](O)[C@H](O)CC[C@@H](O)C[C@@H](O)CC(=O)O[C@H]1C)C[C@H](O)[C@H]2NC(=O)NC1(C#N)CC1 [I-105],IC50,[3],> 200 µM
same,nephrotoxicity MTD,"Kim1, Timp1, and Lcn2",>24 mg/kg
